The results in this text go back to patent publication US11753373B2, “Protease inhibitors as antivirals” (priority 2021, dated 2023).

Data set [1] deals with SARS-CoV-2 M^pro (3CL protease) (Severe acute respiratory syndrome coronavirus 2 (2019-nCoV) (SARS-CoV-2), UniProt P0DTD1). Type of data set: biochemical. The settings on record: read-out: SARS-CoV-2M^pro inhibition IC50.
A further data set deals with SARS-CoV-2. In words: Anti-viral in vitro PRNT assay in Vero E6 cells. The format is cell-based. The settings on record: Vero E6 cells, 1000 pfu, 3 days, plaque reduction; for EC50: read-out: anti-SARS-CoV2 (PRNT) in Vero E6 EC50.
The format of data set [2] is in vitro ADME, Human. The settings on record: extraction ratio, compound at 1 uM, human liver microsomes 0.5 mg/mL. A general note: Microsomes from liver hold many membrane-bound enzymes, among them those of drug oxidation.
Data set [3] is classed as in vitro ADME. The settings on record: extraction ratio, compound at 1 uM; for Liver Microsomal Stability (ER) SD rat: SD rat liver microsomes 0.5 mg/mL; for Liver Microsomal Stability (ER) Beagle dog: beagle dog liver microsomes 0.5 mg/mL; for Liver Microsomal Stability (ER) Monkey: monkey liver microsomes 0.5 mg/mL; for Liver Microsomal Stability (ER) Mouse: mouse liver microsomes 0.5 mg/mL.

For data set [4] the following is noted: mouse oral PK, female Balb/c, 40 mg/kg single dose, plasma.
Description: Pharmacokinetics of test compounds was evaluated following an oral administration of a single dose (at 40 mg/kg) to female Balb/c mice.
Procedure: Test compounds were administered to Balb/c mice (n=3 per sex per time point) by a single oral gavage. The target dose level for oral administration was 40 mg/kg. Blood samples were collected at pre-dose, and at 0.083, 0.25, 0.50, 1, 2, 4, 6, 8, and 12 hours post-dose. Concentrations of test compound were determined by an LC-MS/MS. Non-compartmental Pharmacokinetic parameters of test compounds were analyzed using Phoenix WinNonlin 8.3.
Animal Dosing: All animals were fasted overnight through approximately 4 hours post-dose. Tap water was provided to mice ad Libitum. The mice were dosed orally at 10.0 ml/kg. The formulation volume of the test compound administered to each animal was calculated based on the body weight measured on the day of dosing.
Sample Collection and Analysis: Approximately 0.20 mL of blood was collected via orbital sinus vein puncture into EDTA-K2 tubes. Plasma samples were harvested by centrifugation and stored at −80° C. until analysis. The analytical method for test compound involved protein precipitation by adding acetonitrile containing 1% FA and internal standard (A-1-a synthesized in house or Tolbutamide purchased from Sigma), and final analysis by LC-MS/MS. A standard curve was prepared using mouse plasma for the test compound. The calibration curve was linear over a concentration range of 1.0 to 1000 ng/mL.
Pharmacokinetic and Statistic Analysis: The reported plasma concentrations of test compounds were used to determine pharmacokinetic parameters, using a non-compartmental model for data analysis (Phoenix WinNonlin 8.3). The common pharmacokinetic parameters were calculated, whenever possible, from the plasma concentration-versus-time data. Nominal doses and sampling times were used, except where deviations were noted. […] BQL after Tmax would not participate in calculation of PK parameters.
Where [5] appears, read: wild type Mpro 17 nM, substrate 40 uM.

Where two headings read alike, the source gives them in different places. Bounds are passed on as bounds.

Regarding `CC(C)C[C@H](NC(=O)c1cc2ccccc2[nH]1)C(=O)N[C@@H](C[C@@H]1CCNC1=O)C(=O)CCl` [Compound A-1-g, (2S)—N-[(2S)-4-chloro-3-oxo-1-[(3S)-2-oxopyrrolidin-3-yl]butan-2-yl]-2-[(1H-indol-2-yl)formamido]-4-methylpentanamide], the IC50 (usually the concentration needed to halve the response being measured) in data set [1] is 47 nM. The EC50 (as a rule, the concentration at which the effect is half-maximal) in the data set with SARS-CoV-2 (Severe acute respiratory syndrome coronavirus 2, Vero C1008, 72 h) was determined as 18200 nM. The “Liver Microsomal Stability (ER) Human” value in data set [2] stood at 0.80. Moreover, in data set [3], the “Liver Microsomal Stability (ER) SD rat” value is 0.77, the “Liver Microsomal Stability (ER) Beagle dog” value is 0.71, the “Liver Microsomal Stability (ER) Monkey” value stood at 0.68 and the “Liver Microsomal Stability (ER) Mouse” value is 0.53.
As for `CC(C)C[C@H](NC(=O)c1cc2ccccc2[nH]1)C(=O)N[C@@H](C[C@@H]1CCNC1=O)C(=O)CO` [Compound A-1-h], the IC50 in data set [1] (setting [5]) is 10.2 nM. Also, the “anti-SARS-CoV2 (PRNT) in Vero E6 EC50 (μM)” value (“anti-SARS-CoV2 (PRNT)” for short) in the data set on SARS-CoV-2 was “Inactive”. Further, the “Liver Microsomal Stability (ER) Human” value in data set [2] is 0.07. In data set [3], the “Liver Microsomal Stability (ER) SD rat” value was 0.13, the “Liver Microsomal Stability (ER) Beagle dog” value is recorded as 0.03 and the “Liver Microsomal Stability (ER) Mouse” value is 0.23.
Regarding `Cc1cccc2[nH]c(C(=O)N[C@@H](CC(C)C)C(=O)N[C@@H](C[C@@H]3CCNC3=O)C(=O)CO)cc12` [Compound A-4-d], the IC50 in data set [1] (setting [5]) amounted to 4.13 nM. The EC50 with SARS-CoV-2 came to 2060 nM. For the same compound, in data set [2], the “Liver Microsomal Stability (ER) Human” value stood at 0.18. For the same compound, in data set [3], the “Liver Microsomal Stability (ER) SD rat” value worked out at 0.19, the “Liver Microsomal Stability (ER) Beagle dog” value is 0.08 and the “Liver Microsomal Stability (ER) Mouse” value was 0.44. In addition, in data set [4], the “AUC0-t” value worked out at 120 ng·h/mL; the Cmax (usually the maximum level reached in the sampled fluid or tissue) worked out at 52 ng/mL; the Tmax (as a rule, the time at which the peak concentration occurs) worked out at 4 h; the “t1/2” value worked out at 2.14 h.
Regarding `CC(C)C[C@H](NC(=O)c1cc2ccccc2[nH]1)C(=O)N1C[C@H]2[C@@H]([C@H]1C(=O)N[C@@H](C[C@@H]1CCNC1=O)C(=O)CCl)C2(C)C` [Compound G-1-d, N-[(2S)-1-[(1R,2S,5S)-2-{[(2S)-4-chloro-3-oxo-1-[(3S)-2-oxopyrrolidin-3-yl]butan-2-yl]carbamoyl}-1,5-dihydrogenio-6,6-dimethyl-3-azabicyclo[3.1.0]hexan-3-yl]-4-methyl-1-oxopentan-2-yl]-1H-indole-2-carboxamide], the IC50 in data set [1] came out at 968 nM. In addition, the “Liver Microsomal Stability (ER) Human” value in data set [2] is 0.83. Besides, in data set [3], the “Liver Microsomal Stability (ER) SD rat” value is on record as 0.78, the “Liver Microsomal Stability (ER) Beagle dog” value is recorded as 0.81, the “Liver Microsomal Stability (ER) Monkey” value was 0.92 and the “Liver Microsomal Stability (ER) Mouse” value was found to be 0.59.
Take `CC(C)C[C@H](NC(=O)c1cc2ccccc2[nH]1)C(=O)N1C[C@H]2[C@@H]([C@H]1C(=O)N[C@@H](C[C@@H]1CCNC1=O)C(=O)CO)C2(C)C` [Compound G-1-e]: the IC50 in data set [1] (setting [5]) was found to be 57.9 nM. The “Liver Microsomal Stability (ER) Human” value in data set [2] is listed as 0.17. In data set [3], the “Liver Microsomal Stability (ER) SD rat” value is 0.07, the “Liver Microsomal Stability (ER) Beagle dog” value is on record as 0.07 and the “Liver Microsomal Stability (ER) Mouse” value is given as 0.25.
On to `CC(C)C[C@H](NC(=O)c1cc2ccccc2[nH]1)C(=O)N1C[C@H]2[C@@H]([C@H]1C(=O)N[C@H](C=O)C(C)C)C2(C)C` [Compound G-2-a], for which the IC50 in data set [1] (setting [5]) is greater than 2000 nM. For the same compound, the “Liver Microsomal Stability (ER) Human” value in data set [2] was determined as 0.54. Also, in data set [3], the “Liver Microsomal Stability (ER) SD rat” value turned out to be 0.53, the “Liver Microsomal Stability (ER) Beagle dog” value was determined as 0.56, the “Liver Microsomal Stability (ER) Monkey” value is listed as 0.48 and the “Liver Microsomal Stability (ER) Mouse” value came out at 0.16.
With `CC(C)C[C@H](NC(=O)c1cc2ccccc2[nH]1)C(=O)N1C[C@H]2[C@@H]([C@H]1C(=O)N[C@H](C(=O)CCl)C(C)C)C2(C)C` [Compound G-2-c], in data set [1] (setting [5]), the IC50 was greater than 2000 nM. Further, the “Liver Microsomal Stability (ER) Human” value in data set [2] is given as 0.85. In data set [3], the “Liver Microsomal Stability (ER) SD rat” value was 0.79, the “Liver Microsomal Stability (ER) Beagle dog” value was 0.84 and the “Liver Microsomal Stability (ER) Mouse” value stood at 0.92.
In the same order, the values of `CC(C)C[C@H](NC(=O)c1cc2ccccc2[nH]1)C(=O)N1C[C@H]2[C@@H]([C@H]1C(=O)N[C@H](C=O)C(C)(C)C)C2(C)C` [Compound G-3-a] are greater than 10000 nM, 0.70, 0.54, 0.62 and 0.78.
Regarding `CC(C)C[C@H](NC(=O)c1cc2ccccc2[nH]1)C(=O)N1C[C@H]2[C@@H]([C@H]1C(=O)N[C@H](C#N)C(C)(C)C)C2(C)C` [Compound G-3-b], the IC50 in data set [1] (setting [5]) was greater than 10000 nM. The “Liver Microsomal Stability (ER) Human” value in data set [2] came to 0.28. In addition, in data set [3], the “Liver Microsomal Stability (ER) SD rat” value is 0.20, the “Liver Microsomal Stability (ER) Beagle dog” value is given as 0.32 and the “Liver Microsomal Stability (ER) Mouse” value is 0.55. Further, in data set [4], the “AUC0-t” value amounted to 383.7 ng·h/mL, the “Cmax” value turned out to be 169 ng/mL, the “Tmax” value was 2 h and the “t1/2” value amounted to 0.773 h.
Consider `CC(C)C[C@H](NC(=O)C(F)F)C(=O)N1C[C@H]2[C@@H]([C@H]1C(=O)N[C@H](C=O)C[C@@H]1CCNC1=O)C2(C)C` [Compound H-1-a], for which, in data set [1] (setting [5]), the IC50 stood at 6.35 nM. The “anti-SARS-CoV2 (PRNT)” value with SARS-CoV-2 was “inactive”. The “Liver Microsomal Stability (ER) Human” value in data set [2] is 0.08. Further, in data set [3], the “Liver Microsomal Stability (ER) SD rat” value turned out to be 0.05, the “Liver Microsomal Stability (ER) Beagle dog” value is recorded as 0.10 and the “Liver Microsomal Stability (ER) Mouse” value is on record as 0.24.
`CC(C)C[C@H](NC(=O)C(F)(F)F)C(=O)N1C[C@H]2[C@@H]([C@H]1C(=O)N[C@H](C#N)C[C@@H]1CCNC1=O)C2(C)C` [Compound H-1-c]: the IC50 in data set [1] (setting [5]) came to 36.7 nM. The “Liver Microsomal Stability (ER) Human” value in data set [2] is reported as 0.15. In data set [3], the “Liver Microsomal Stability (ER) SD rat” value was determined as 0.06, the “Liver Microsomal Stability (ER) Beagle dog” value is recorded as 0.02 and the “Liver Microsomal Stability (ER) Mouse” value was 0.44.
Regarding `CC(C)C[C@H](NC(=O)C(C)(C)C)C(=O)N1C[C@H]2[C@@H]([C@H]1C(=O)N[C@H](C#N)C[C@@H]1CCNC1=O)C2(C)C` [Compound H-1-d], in data set [1] (setting [5]), the IC50 amounted to 39.6 nM. In the data set with SARS-CoV-2, the “anti-SARS-CoV2 (PRNT)” value is listed as “Inactive”. Moreover, the “Liver Microsomal Stability (ER) Human” value in data set [2] is recorded as 0.26. Moreover, in data set [3], the “Liver Microsomal Stability (ER) SD rat” value came out at 0.09, the “Liver Microsomal Stability (ER) Beagle dog” value is reported as 0.16 and the “Liver Microsomal Stability (ER) Mouse” value worked out at 0.63.
With `CC(C)C[C@H](NC(=O)C(C)C)C(=O)N1C[C@H]2[C@@H]([C@H]1C(=O)N[C@H](C#N)C[C@@H]1CCNC1=O)C2(C)C` [Compound H-1-e], the IC50 in data set [1] (setting [5]) is 43.3 nM. Moreover, in data set [2], the “Liver Microsomal Stability (ER) Human” value came out at 0.05. Moreover, in data set [3], the “Liver Microsomal Stability (ER) SD rat” value is reported as 0.06, the “Liver Microsomal Stability (ER) Beagle dog” value is 0.05 and the “Liver Microsomal Stability (ER) Mouse” value amounted to 0.31.
Turning to `CC(C)(C)C(=O)N[C@H](C(=O)N1C[C@H]2[C@@H]([C@H]1C(=O)N[C@H](C#N)C[C@@H]1CCNC1=O)C2(C)C)C(C)(C)C` [Compound H-2-a], the IC50 in data set [1] (setting [5]) was 40.7 nM. In addition, in the data set with SARS-CoV-2, the “anti-SARS-CoV2 (PRNT)” value is given as “Inactive”. Moreover, the “Liver Microsomal Stability (ER) Human” value in data set [2] is reported as 0.53. In addition, in data set [3], the “Liver Microsomal Stability (ER) SD rat” value came to 0.15, the “Liver Microsomal Stability (ER) Beagle dog” value is 0.52 and the “Liver Microsomal Stability (ER) Mouse” value is reported as 0.83.
As for `CC(C)C(=O)N[C@H](C(=O)N1C[C@H]2[C@@H]([C@H]1C(=O)N[C@@H](C[C@@H]1CCNC1=O)C(N)=O)C2(C)C)C(C)(C)C` [Compound H-2-b], in data set [1] (setting [5]), the half-inhibitory concentration (IC50) came to 6.6 nM. In data set [2], the “Liver Microsomal Stability (ER) Human” value is on record as 0.18. Further, in data set [3], the “Liver Microsomal Stability (ER) SD rat” value came out at 0.37, the “Liver Microsomal Stability (ER) Beagle dog” value came out at 0.06 and the “Liver Microsomal Stability (ER) Mouse” value was 0.37.
With `CC(C)(C)[C@H](NC(=O)C1CC1)C(=O)N1C[C@H]2[C@@H]([C@H]1C(=O)N[C@H](C#N)C[C@@H]1CCNC1=O)C2(C)C` [Compound H-2-c], in data set [1] (setting [5]), the IC50 came out at 6.1 nM. Further, the EC50 in the data set on SARS-CoV-2 turned out to be 3360 nM. For the same compound, the “Liver Microsomal Stability (ER) Human” value in data set [2] was 0.02. Moreover, in data set [3], the “Liver Microsomal Stability (ER) SD rat” value was found to be 0.01, the “Liver Microsomal Stability (ER) Beagle dog” value turned out to be 0.01 and the “Liver Microsomal Stability (ER) Mouse” value is on record as 0.32.
In the case of `CC(C)C[C@H](NC(=O)[C@@H](NC(=O)C(F)F)[C@@H](C)OC(C)(C)C)C(=O)N[C@H](C#N)C[C@@H]1CCNC1=O` [Compound H-3-a], the IC50 in data set [1] (setting [5]) came out at 8.1 nM. For the same compound, the EC50 in the data set on SARS-CoV-2 was determined as 2190 nM. The “Liver Microsomal Stability (ER) Human” value in data set [2] was determined as 0.35. In data set [3], the “Liver Microsomal Stability (ER) SD rat” value was found to be 0.21, the “Liver Microsomal Stability (ER) Beagle dog” value is 0.06 and the “Liver Microsomal Stability (ER) Mouse” value was 0.68.
